Assay results: ChEMBL document CHEMBL1201862, “PubChem BioAssay data set” (2004)
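Dose response: 5 concentrations. Exposure: 48 h. Format: 96-well plates. Endpoint: linear interpolation; highest concentration if not reached. GI50 marks 50% less growth.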 Active and inactive are the calls of the source. Cut-off read from the data, not from the text of the source: active = GI50 up to about 1.1 µM and inactive = higher.

Legend:
Test in all cases: inhibition of tumour cell growth, NCI panel, 48 h
HT-29 = system: HT-29
MDA-N = system: MDA-N
SK-MEL-28 = system: SK-MEL-28
MDA-MB-231 = system: MDA-MB-231
A498 = system: A498
U-251 = system: U-251
UACC-62 = system: UACC-62
KM12 = system: KM12
SN12C = system: SN12C
SF-268 = system: SF-268
MDA-MB-435 = system: MDA-MB-435
ACHN = system: ACHN
786-0 = system: 786-0
Hs-578T = system: Hs-578T
COLO 205 = system: COLO 205
SR = system: SR
NCI-H226 = system: NCI-H226
OVCAR-4 = system: OVCAR-4
DU-145 = system: DU-145

| Structure (SMILES) | GI50 (HT-29) | GI50 (MDA-N) | GI50 (SK-MEL-28) | GI50 (MDA-MB-231) | GI50 (A498) | GI50 (U-251) | GI50 (UACC-62) | GI50 (KM12) | GI50 (SN12C) | GI50 (SF-268) | GI50 (MDA-MB-435) | GI50 (ACHN) | GI50 (786-0) | GI50 (Hs-578T) | GI50 (COLO 205) | GI50 (SR) | GI50 (NCI-H226) | GI50 (OVCAR-4) | GI50 (DU-145) |
| --- | --- | --- | --- | --- | --- | --- | --- | --- | --- | --- | --- | --- | --- | --- | --- | --- | --- | --- | --- |
| CC(=O)Nc1ccc2nc(-c3cccc(F)c3)cc(O)c2c1 | 5.28 µM (inactive) | 2.28 µM (inactive) | > 23.7 µM (inactive) | 14.4 µM (inactive) | 8.85 µM (inactive) | 2.67 µM (inactive) | 3.01 µM (inactive) | 5.08 µM (inactive) | 15.9 µM (inactive) | 28.1 µM (inactive) | 1.6 µM (inactive) | > 83.9 µM (inactive) | 10.6 µM (inactive) | 3.74 µM (inactive) | 11.2 µM (inactive) | 2.32 µM (inactive) |  |  |  |
| O=S(=O)(N=[Se](=O)(c1ccccc1)c1ccccc1)c1ccccc1 | > 100 µM (inactive) | > 100 µM (inactive) | > 100 µM (inactive) | > 100 µM (inactive) | > 100 µM (inactive) | > 100 µM (inactive) |  | > 100 µM (inactive) | > 100 µM (inactive) | > 100 µM (inactive) | > 100 µM (inactive) | > 100 µM (inactive) | > 100 µM (inactive) | > 100 µM (inactive) | > 100 µM (inactive) | > 100 µM (inactive) | > 100 µM (inactive) | > 100 µM (inactive) |  |
| Cc1ccsc1/C=N/Nc1cc(C)c2cccc(C)c2n1 | 4.14 µM (inactive) | > 100 µM (inactive) | > 100 µM (inactive) |  | > 100 µM (inactive) | > 100 µM (inactive) | > 100 µM (inactive) | > 100 µM (inactive) | > 100 µM (inactive) | > 100 µM (inactive) | > 100 µM (inactive) | > 100 µM (inactive) | 24.4 µM (inactive) | > 100 µM (inactive) | > 100 µM (inactive) |  | > 100 µM (inactive) | > 100 µM (inactive) | > 100 µM (inactive) |
| COC1(OC)CC(CO)(CNc2nc(N)nc(Cl)c2C=O)C1 | 55.6 µM (inactive) |  | 50 µM (inactive) | 20.8 µM (inactive) | > 100 µM (inactive) | 34.6 µM (inactive) |  | 49 µM (inactive) | 28.4 µM (inactive) | 44.2 µM (inactive) | 25.8 µM (inactive) | 3.48 µM (inactive) | > 100 µM (inactive) | 39.8 µM (inactive) | > 100 µM (inactive) | 20.1 µM (inactive) | 93.3 µM (inactive) | 25.2 µM (inactive) | 95.9 µM (inactive) |
| O=C(O[C@H](/C=C/c1ccccc1)P1(=O)N(Cc2ccccc2)[C@@H]2CCCC[C@H]2N1Cc1ccccc1)c1ccccc1 | 3.45 µM (inactive) | 3.68 µM (inactive) | 3.05 µM (inactive) | 3.16 µM (inactive) | 5.57 µM (inactive) | 3.26 µM (inactive) | 4.86 µM (inactive) | 3.24 µM (inactive) | 3.07 µM (inactive) | 4.06 µM (inactive) | 3.63 µM (inactive) | 3.94 µM (inactive) | 3.83 µM (inactive) | 6.93 µM (inactive) | 2.17 µM (inactive) | 3.44 µM (inactive) | 2.61 µM (inactive) | 1.79 µM (inactive) |  |
| O=C(Cc1nc2ccc(C(=O)c3ccccc3)cc2nc1O)C(=O)Nc1ccccc1[N+](=O)[O-] | 47.1 µM (inactive) | 39.4 µM (inactive) | 94.8 µM (inactive) | 38.1 µM (inactive) | > 100 µM (inactive) | 88.5 µM (inactive) | 55.3 µM (inactive) | 24 µM (inactive) | > 100 µM (inactive) | 87.7 µM (inactive) | 38.9 µM (inactive) | 67.3 µM (inactive) | 80.2 µM (inactive) | 47.8 µM (inactive) |  | 29.2 µM (inactive) | 13.8 µM (inactive) | 32.4 µM (inactive) |  |
| [N-]=[N+]=NI1OC(=O)c2ccccc21 | > 100 µM (inactive) |  | 47.2 µM (inactive) | > 100 µM (inactive) | > 100 µM (inactive) | 92.9 µM (inactive) | > 100 µM (inactive) | > 100 µM (inactive) | > 100 µM (inactive) | 73.6 µM (inactive) | 67.3 µM (inactive) | 65.9 µM (inactive) | > 100 µM (inactive) | > 100 µM (inactive) | 48.5 µM (inactive) | 38.7 µM (inactive) | > 100 µM (inactive) | > 100 µM (inactive) | > 100 µM (inactive) |
| O=C(OCC(OC(=O)c1ccccc1)C1CC(C2(O)CCCCC2)C(=O)O1)c1ccccc1 (stereo not given) | 14 µM (inactive) | > 25 µM (inactive) | > 25 µM (inactive) | > 25 µM (inactive) | > 25 µM (inactive) | > 25 µM (inactive) | 0.0462 µM (active) | 11 µM (inactive) | > 25 µM (inactive) | > 25 µM (inactive) | > 25 µM (inactive) | > 25 µM (inactive) | > 25 µM (inactive) |  | > 25 µM (inactive) | 7.59 µM (inactive) | > 25 µM (inactive) | > 25 µM (inactive) | > 25 µM (inactive) |
| COc1ccc(/C=C(\C#N)c2ccccn2)cc1OC | 43 µM (inactive) | 42.4 µM (inactive) | 38.4 µM (inactive) |  |  | 16.3 µM (inactive) | 58.7 µM (inactive) | 53.1 µM (inactive) | 53 µM (inactive) | 33 µM (inactive) |  | 55.8 µM (inactive) | 43.9 µM (inactive) |  | 69.2 µM (inactive) | 33.8 µM (inactive) | 27.2 µM (inactive) | 73.1 µM (inactive) | 32.1 µM (inactive) |
| c1c[nH]c(-c2ccc(-c3ccc[nH]3)c3nsnc23)c1 | > 26.3 µM (inactive) | > 70.1 µM (inactive) | > 69.5 µM (inactive) |  | > 76.6 µM (inactive) | 42.1 µM (inactive) | > 47.5 µM (inactive) | 0.217 µM (active) | > 54.5 µM (inactive) | > 53.6 µM (inactive) | > 48.1 µM (inactive) | > 52.6 µM (inactive) | > 39.1 µM (inactive) | 35.9 µM (inactive) | 1.53 µM (inactive) |  | > 100 µM (inactive) | 0.612 µM (active) | > 56.8 µM (inactive) |
| NS(=O)(=O)c1cc(S(N)(=O)=O)c(NC(=O)N(c2ccccc2)c2ccccc2)c(Cl)c1Cl | 19.5 µM (inactive) | 24.7 µM (inactive) | 34.4 µM (inactive) | 33 µM (inactive) |  | 24.3 µM (inactive) | 26.2 µM (inactive) | 20.3 µM (inactive) | 19.5 µM (inactive) | 42.2 µM (inactive) | 21.5 µM (inactive) | 23.2 µM (inactive) | 30.1 µM (inactive) | 17.2 µM (inactive) | 22.9 µM (inactive) | 18.4 µM (inactive) | 18.9 µM (inactive) | 27.4 µM (inactive) |  |
| c1csc(-c2csc(-c3ccsc3)c2)c1 | > 100 µM (inactive) | > 100 µM (inactive) | > 100 µM (inactive) | > 100 µM (inactive) | > 100 µM (inactive) | > 100 µM (inactive) | > 100 µM (inactive) | > 100 µM (inactive) | > 100 µM (inactive) | > 100 µM (inactive) | > 100 µM (inactive) | > 100 µM (inactive) | > 100 µM (inactive) | > 100 µM (inactive) | > 100 µM (inactive) | 97.3 µM (inactive) | > 57.5 µM (inactive) | > 100 µM (inactive) |  |
| O=C1c2ccsc2-c2cccc3cccc1c23.O=C1c2sccc2-c2cccc3cccc1c23 | 2.11 µM (inactive) |  | 21.1 µM (inactive) | 4.35 µM (inactive) |  | 4.62 µM (inactive) | 4.15 µM (inactive) | 3.52 µM (inactive) | 6.67 µM (inactive) | 7.89 µM (inactive) | 17.1 µM (inactive) | 2.37 µM (inactive) | 5.89 µM (inactive) | 0.366 µM (active) | 2.33 µM (inactive) | 0.203 µM (active) | 2.03 µM (inactive) | 11 µM (inactive) | 0.65 µM (active) |
| COc1ccccc1NCc1cccc2c(=O)c3ccc(Cl)cc3oc12 | 46.6 µM (inactive) | 93.8 µM (inactive) | > 100 µM (inactive) | > 100 µM (inactive) | > 100 µM (inactive) | 33.5 µM (inactive) | > 100 µM (inactive) | 40.1 µM (inactive) | > 100 µM (inactive) |  | 65 µM (inactive) | > 100 µM (inactive) | > 100 µM (inactive) |  | 56.9 µM (inactive) | 83.4 µM (inactive) | > 100 µM (inactive) | > 100 µM (inactive) |  |
| COc1ccccc1NC(=O)C1=C(C)NC(C)=C(C(=O)Nc2ccccc2OC)C1c1ccc(C(C)C)cc1 | > 100 µM (inactive) |  | 80.5 µM (inactive) |  | > 100 µM (inactive) | 84.3 µM (inactive) | > 100 µM (inactive) | 55.6 µM (inactive) | > 100 µM (inactive) | > 100 µM (inactive) |  | 65.9 µM (inactive) | > 100 µM (inactive) |  | > 100 µM (inactive) | 15.5 µM (inactive) | > 100 µM (inactive) | 16.8 µM (inactive) |  |
| CS(=O)(=O)N(N(CCCl)S(=O)(=O)c1ccccc1)S(C)(=O)=O | > 100 µM (inactive) |  | > 100 µM (inactive) |  |  | 17.7 µM (inactive) | > 100 µM (inactive) | > 100 µM (inactive) | > 100 µM (inactive) | 21.3 µM (inactive) |  | > 100 µM (inactive) | 44.7 µM (inactive) |  | > 100 µM (inactive) | > 100 µM (inactive) | > 100 µM (inactive) | > 100 µM (inactive) |  |
